Laboratory results reported in ChEMBL document CHEMBL5620360, “Design, synthesis and biological evaluation of 4-(4-aminophenoxy)picolinamide derivatives as potential antitumor agents” (Eur J Med Chem, 2023).

Legend:
[1] = tested on: HeLa; assay: Antiproliferative activity against human HeLa cells assessed as reduction in cell viability incubated for 72 hrs by MTT assay; format: functional, cell-based
[2] = tested on: A549; assay: cells; settings: Homo sapiens, A549, 72 h
[3] = tested on: MCF7; assay: cells; settings: Homo sapiens, MCF7, 72 h
[4] = tested on: A549
[5] = tested on: A549; assay: Induction of apoptosis in human A549 cells assessed as viable cells at 5 uM measured after 24 hrs by AnnexinV-FITC/PI staining based flow cytometry (reference value: 93.25%); format: functional; settings: read-out: Activity
[6] = tested on: A549; assay: Induction of apoptosis in human A549 cells assessed as early apoptotic cells at 5 uM measured after 24 hrs by AnnexinV-FITC/PI staining based flow cytometry (reference value: 1.26%); format: functional
[7] = tested on: A549; assay: Induction of apoptosis in human A549 cells assessed as late apoptotic cells at 5 uM measured after 24 hrs by AnnexinV-FITC/PI staining based flow cytometry (reference value: 1.47%); format: functional
[8] = tested on: A549; assay: Induction of apoptosis in human A549 cells assessed as necrotic cells at 5 uM measured after 24 hrs by AnnexinV-FITC/PI staining based flow cytometry (reference value: 4.01%); format: functional
[9] = tested on: A549; assay: Induction of cell cycle arrest in human A549 cells assessed as accumulation of cells at G1 phase at 5 uM incubated for 24 hrs by propidium iodide staining based flow cytometry (reference value: 54.46%); format: functional
[10] = tested on: A549; assay: Induction of cell cycle arrest in human A549 cells assessed as accumulation of cells at G2 phase at 5 uM incubated for 24 hrs by propidium iodide staining based flow cytometry (reference value: 7.36%); format: functional
[11] = tested on: A549; assay: Induction of cell cycle arrest in human A549 cells assessed as accumulation of cells at S phase at 5 uM incubated for 24 hrs by propidium iodide staining based flow cytometry (reference value: 38.18%); format: functional
[12] = tested on: MCF7
[13] = Homo sapiens, HeLa, 72 h, read-out: IC50

Compound	IC50 [1, 13]	IC50 [2]	IC50 [3]	also measured
O=C(Nc1ccc(Oc2ccnc(C(=O)N3CCCC3)c2)cc1)c1cn(-c2ccccc2)c2ncccc2c1=O	41.2 µM	47.6 µM	38.1 µM	
O=C(NCCCN1CCOCC1)c1cc(Oc2ccc(NC(=O)c3cn(-c4ccc(Br)cc4)c4ncccc4c3=O)cc2)ccn1	9.76 µM	0.74 µM	11 µM	
CCCNC(=O)c1cc(Oc2ccc(NC(=O)c3cn(-c4ccc(F)cc4)c4ncccc4c3=O)cc2F)ccn1	23.8 µM	19.3 µM	40.7 µM	
O=C(Nc1ccc(Oc2ccnc(C(=O)N3CCCC3)c2)c(F)c1)c1cn(-c2ccc(Br)cc2)c2ncccc2c1=O	42.3 µM		44.3 µM	IC50 [4]: Not Active
COc1ccc(-n2cc(C(=O)Nc3ccc(Oc4ccnc(C(=O)NCCCN5CCOCC5)c4)c(F)c3)c(=O)c3cccnc32)cc1	17.4 µM	19.3 µM	30.8 µM	
CCCNC(=O)c1cc(Oc2ccc(NC(=O)c3cn(-c4ccc(Br)cc4F)c4ncccc4c3=O)cc2F)ccn1	41.8 µM	18.7 µM	17.3 µM	
O=C(NCCCN1CCOCC1)c1cc(Oc2ccc(NC(=O)c3cn(-c4ccccc4)c4ncccc4c3=O)cc2F)ccn1	7.02 µM	9.57 µM	23.7 µM	
COc1ccc(-n2cc(C(=O)Nc3ccc(Oc4ccnc(C(=O)N5CCCC5)c4)cc3)c(=O)c3cccnc32)cc1	57 µM	33.6 µM	62.1 µM	
O=C(Nc1ccc(Oc2ccnc(C(=O)N3CCCC3)c2)c(F)c1)c1cn(-c2ccc(F)cc2)c2ncccc2c1=O	2.13 µM	1.62 µM	2.98 µM	
CCCNC(=O)c1cc(Oc2ccc(NC(=O)c3cn(-c4ccc(OC)cc4)c4ncccc4c3=O)cc2F)ccn1	67.5 µM	51.1 µM	71.3 µM	
O=C(NCCCN1CCOCC1)c1cc(Oc2ccc(NC(=O)c3cn(-c4ccc(F)cc4)c4ncccc4c3=O)cc2F)ccn1	1.57 µM	0.58 µM	4.96 µM	
CCCNC(=O)c1cc(Oc2ccc(NC(=O)c3cn(-c4ccc(Br)cc4)c4ncccc4c3=O)cc2)ccn1	65.9 µM		73.9 µM	IC50 [4]: Not Active
O=C(NCCCN1CCOCC1)c1cc(Oc2ccc(NC(=O)c3cn(-c4ccc(Br)cc4F)c4ncccc4c3=O)cc2F)ccn1	1.85 µM	1.18 µM	3.51 µM	
O=C(Nc1ccc(Oc2ccnc(C(=O)N3CCCC3)c2)cc1)c1cn(-c2ccc(F)cc2)c2ncccc2c1=O	5.28 µM	3.47 µM	15 µM	
O=C(Nc1ccc(Oc2ccnc(C(=O)N3CCCC3)c2)c(F)c1)c1cn(-c2ccc(F)c(Cl)c2)c2ncccc2c1=O	1.28 µM	0.98 µM	2.96 µM	
O=C(NCCCN1CCOCC1)c1cc(Oc2ccc(NC(=O)c3cn(-c4ccc(Br)cc4)c4ncccc4c3=O)cc2F)ccn1	4.57 µM	2.91 µM	4.87 µM	
COc1cc2nccc(Oc3ccc(NC(=O)C4(C(=O)Nc5ccc(F)cc5)CC4)cc3)c2cc1OC [CABOZANTINIB]	1.17 µM	0.62 µM	3.15 µM	viability at 5 µM [5]: 88.2%; Activity [6]: 2.33%; Activity [7]: 4.25%; Activity [8]: 5.19%; Activity [9]: 56.19%; Activity [10]: 11.66%; Activity [11]: 32.15%
O=C(Nc1ccc(Oc2ccnc(C(=O)N3CCCC3)c2)cc1)c1cn(-c2ccc(Br)cc2)c2ncccc2c1=O	75.5 µM		62.1 µM	IC50 [4]: Not Active

Compound	IC50 [1, 13]	IC50 [2]	IC50 [3]	also measured
O=C(NCCCN1CCOCC1)c1cc(Oc2ccc(NC(=O)c3cn(-c4ccc(Br)cc4F)c4ncccc4c3=O)cc2)ccn1	7.96 µM	9.27 µM	0.83 µM	
CCCNC(=O)c1cc(Oc2ccc(NC(=O)c3cn(-c4ccccc4)c4ncccc4c3=O)cc2F)ccn1	75 µM	67.2 µM	74 µM	
O=C(NCCCN1CCOCC1)c1cc(Oc2ccc(NC(=O)c3cn(-c4ccc(F)c(Cl)c4)c4ncccc4c3=O)cc2)ccn1	39 µM	7.88 µM	43 µM	
COc1ccc(-n2cc(C(=O)Nc3ccc(Oc4ccnc(C(=O)NCCCN5CCOCC5)c4)cc3)c(=O)c3cccnc32)cc1	28.3 µM	16.2 µM	29.1 µM	
O=C(Nc1ccc(Oc2ccnc(C(=O)N3CCCC3)c2)cc1)c1cn(-c2ccc(Br)cc2F)c2ncccc2c1=O		56.8 µM	78.5 µM	IC50 ([1]; hela): Not Active
O=C(Nc1ccc(Oc2ccnc(C(=O)N3CCCC3)c2)c(F)c1)c1cn(-c2ccc(Cl)cc2)c2ncccc2c1=O	75.4 µM	79.3 µM	82.1 µM	
CCCNC(=O)c1cc(Oc2ccc(NC(=O)c3cn(-c4ccc(Br)cc4)c4ncccc4c3=O)cc2F)ccn1	35.9 µM	8.01 µM	10.4 µM	
CCCNC(=O)c1cc(Oc2ccc(NC(=O)c3cn(-c4ccc(Cl)cc4)c4ncccc4c3=O)cc2F)ccn1	65.3 µM	45.1 µM	52.9 µM	
O=C(NCCCN1CCOCC1)c1cc(Oc2ccc(NC(=O)c3cn(-c4ccc(F)cc4)c4ncccc4c3=O)cc2)ccn1	7.92 µM	4.18 µM	5.75 µM	
O=C(Nc1ccc(Oc2ccnc(C(=O)N3CCCC3)c2)c(F)c1)c1cn(-c2ccc(Br)cc2F)c2ncccc2c1=O	50.8 µM			IC50 [4]: Not Active; IC50 [12]: Not Active
CCCNC(=O)c1cc(Oc2ccc(NC(=O)c3cn(-c4ccc(F)cc4)c4ncccc4c3=O)cc2)ccn1	1.09 µM	0.89 µM	3.01 µM	
CCCNC(=O)c1cc(Oc2ccc(NC(=O)c3cn(-c4ccc(Br)cc4F)c4ncccc4c3=O)cc2)ccn1	80.5 µM			IC50 [4]: Not Active; IC50 [12]: Not Active
COc1ccc(-n2cc(C(=O)Nc3ccc(Oc4ccnc(C(=O)N5CCCC5)c4)c(F)c3)c(=O)c3cccnc32)cc1			77 µM	IC50 ([1]; hela): Not Active; IC50 [4]: Not Active
CCCNC(=O)c1cc(Oc2ccc(NC(=O)c3cn(-c4ccc(OC)cc4)c4ncccc4c3=O)cc2)ccn1	2.01 µM	0.96 µM	2.86 µM	
O=C(Nc1ccc(Oc2ccnc(C(=O)N3CCCC3)c2)c(F)c1)c1cn(-c2ccccc2)c2ncccc2c1=O	60.5 µM		69.4 µM	IC50 [4]: Not Active
CCCNC(=O)c1cc(Oc2ccc(NC(=O)c3cn(-c4ccc(F)c(Cl)c4)c4ncccc4c3=O)cc2F)ccn1	43.6 µM	34.8 µM	39 µM	
O=C(Nc1ccc(Oc2ccnc(C(=O)N3CCCC3)c2)cc1)c1cn(-c2ccc(Cl)cc2)c2ncccc2c1=O	67 µM	57.1 µM	69.8 µM	
O=C(NCCCN1CCOCC1)c1cc(Oc2ccc(NC(=O)c3cn(-c4ccc(Cl)cc4)c4ncccc4c3=O)cc2F)ccn1	29.4 µM	3.87 µM	39.3 µM	
